Data published in patent US7419969B2 (Bristol-Myers Squibb Company, priority 2004, dated 2008).

The compounds below were run against T1, HIV-integrase (Human immunodeficiency virus type 1 group M subtype B, UniProt P04585) (assay: in-vitro activity against HIV-integrase (HIV Integrase Inhibition, SPA bead assay)). Settings: Table 1; recombinant integrase, activity class.
T1 construct: Recombinant integrase (0.26 ng) was incubated with the beads
Type: biochemical
In short: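 Recombinant integrase (0.26 ng) pre-bound for 90 min at 37 °C to biotinylated substrate DNA on streptavidin SPA beads, then washed. Inhibitors added with 33P-labelled target DNA; reaction stopped with 10 mM EDTA. Scintillation CPM taken as integration signal.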
For `O=C(NCc1ccccc1)c1nc2n(c(=O)c1O)CCCC21CCC1` [Example 62, N-(phenylmethyl)-7′,8′-dihydro-3′-hydroxy-4′-oxo-spiro[cyclobutane-1,9′(6′H)-[4H]pyrido[1,2-α]pyrimidine]-2′-carboxamide], the IC50 was 1 to 10 nM. Work on `Cc1ccc(CNC(=O)c2nc3n(c(=O)c2O)CCCC32CCC2)cc1` [Example 63, N-[(4-methylphenyl)methyl]-7′,8′-dihydro-3′-hydroxy-4′-oxo-spiro[cyclobutane-1,9′(6′H)-[4H]pyrido[1,2-α]pyrimidine]-2′-carboxamide] yielded an IC50 of 10 to 100 nM. With `COc1ccc(CNC(=O)c2nc3n(c(=O)c2O)CCCC32CCC2)cc1` [Example 64, N-[(4-methoxyphenyl)methyl]-7′,8′-dihydro-3′-hydroxy-4′-oxo-spiro[cyclobutane-1,9′(6H)^1-[4H]pyrido[1,2-α]pyrimidine]-2′-carboxamide] the IC50 was 10 to 100 nM. `O=C(NCc1ccc(Cl)cc1)c1nc2n(c(=O)c1O)CCCC21CCC1` [Example 65, N-[(4-chlorophenyl)methyl]-7′,8′-dihydro-3′-hydroxy-4′-oxo-spiro[cyclobutane-1,9′(6′H)-[4H]pyrido[1,2-α]pyrimidine]-2′-carboxamide] was tested, and the IC50 was 1 to 10 nM. `O=C(NCc1ccc(F)cc1)c1nc2n(c(=O)c1O)CCCC21CCC1` [Example 66, N-[(4-fluorophenyl)methyl]-7′,8′-dihydro-3′-hydroxy-4′-oxo-spiro[cyclobutane-1,9′(6′H)-[4H]pyrido[1,2-α]pyrimidine]-2′-carboxamide] was tested, and the IC50 was 1 to 10 nM. `O=C(NCc1cccc(F)c1)c1nc2n(c(=O)c1O)CCCC21CCC1` [Example 67] was tested, and the IC50 was 1 to 10 nM. `O=C(NCc1ccccc1F)c1nc2n(c(=O)c1O)CCCC21CCC1` [Example 68, N-[(2-fluorophenyl)methyl]-7′,8′-dihydro-3′-hydroxy-4′-oxo-spiro[cyclobutane-1,9′(6′H)-[4H]pyrido[1,2-α]pyrimidine]-2′-carboxamide] gave an IC50 of 10 to 100 nM. With `Cc1ccc(CNC(=O)c2nc3n(c(=O)c2O)CCCC32CCC2)cc1C` [Example 69, N-[(3,4-dimethylphenyl)methyl]-7′,8′-dihydro-3′-hydroxy-4′-oxo-spiro[cyclobutane-1,9′(6′H)-[4H]pyrido[1,2-α]pyrimidine]-2′-carboxamide] the IC50 was 1 to 10 nM. `O=C(NCc1ccc(Cl)c(Cl)c1)c1nc2n(c(=O)c1O)CCCC21CCC1` [Example 70, N-[(3,4-dichlorophenyl)methyl]-7′,8′-dihydro-3′-hydroxy-4′-oxo-spiro[cyclobutane-1,9′(6′H)-[4H]pyrido[1,2-α]pyrimidine]-2′-carboxamide] showed an IC50 of 1 to 10 nM. `COc1ccc(CNC(=O)c2nc3n(c(=O)c2O)CCCC32CCC2)c(OC)c1` [Example 71, N-[(2,4-dimethoxyphenyl)methyl]-7′,8′-dihydro-3′-hydroxy-4′-oxo-spiro[cyclobutane-1,9′(6′H)-[4H]pyrido[1,2-α]pyrimidine]-2′-carboxamide] showed an IC50 of 10 to 100 nM. With `Cc1cc(CNC(=O)c2nc3n(c(=O)c2O)CCCC32CCC2)ccc1F` [Example 72, N-[(4-fluoro-3-methylphenyl)methyl]-7′,8′-dihydro-3′-hydroxy-4′-oxo-spiro[cyclobutane-1,9′(6′H)-[4H]pyrido[1,2-α]pyrimidine]-2′-carboxamide] the IC50 was 1 to 10 nM. With `Cc1ccc(CNC(=O)c2nc3n(c(=O)c2O)CCCC32CCC2)cc1F` [Example 73, N-[(3-fluoro-4-methylphenyl)methyl]-7′,8′-dihydro-3′-hydroxy-4′-oxo-spiro[cyclobutane-1,9′(6′H)-[4H]pyrido[1,2-α]pyrimidine]-2′-carboxamide] the IC50 was 1 to 10 nM. `CC(NC(=O)c1nc2n(c(=O)c1O)CCCC21CCC1)c1ccc(F)cc1` (stereo not drawn) [Example 74, N-[1-(4-fluorophenyl)ethyl]-7′,8′-dihydro-3′-hydroxy-4′-oxo-spiro[cyclobutane-1,9′(6′H)-[4H]pyrido[1,2-α]pyrimidine]-2′-carboxamide] gave an IC50 of 10 to 100 nM. With `O=C(NCc1cc(F)ccc1F)c1nc2n(c(=O)c1O)CCCC21CCC1` [Example 75, N-[(2,5-difluorophenyl)methyl]-7′,8′-dihydro-3′-hydroxy-4′-oxo-spiro[cyclobutane-1,9′(6′H)-[4H]pyrido[1,2-α]pyrimidine]-2′-carboxamide] the IC50 was 10 to 100 nM. `O=C(NCc1cc(Cl)ccc1Cl)c1nc2n(c(=O)c1O)CCCC21CCC1` [Example 76, N-[(2,5-dichlorophenyl)methyl]-7′,8′-dihydro-3′-hydroxy-4′-oxo-spiro[cyclobutane-1,9′(6′H)-[4H]pyrido[1,2-α]pyrimidine]-2′-carboxamide] gave an IC50 of 1 to 10 nM. In the case of `O=C(NCc1cc(F)ccc1-n1cncn1)c1nc2n(c(=O)c1O)CCCC21CCC1` [Example 77, N-[[5-fluoro-2-(1H-1,2,4-triazol-1-yl)phenyl]methyl]-7′,8′-dihydro-3′-hydroxy-4′-oxo-spiro[cyclobutane-1,9′(6′H)-[4H]pyrido[1,2-α]pyrimidine]-2′-carboxamide], the IC50 is reported as 1 to 10 nM. Work on `O=C(NCc1ccc(F)cc1-n1cncn1)c1nc2n(c(=O)c1O)CCCC21CCC1` [Example 78, N-[[4-fluoro-2-(1H-1,2,4-triazol-1-yl)phenyl]methyl]-7′,8′-dihydro-3′-hydroxy-4′-oxo-spiro[cyclobutane-1,9′(6^1′H)-[4H]pyrido[1,2-α]pyrimidine]-2′-carboxamide] yielded an IC50 of 1 to 10 nM. Compound `O=C(NCc1ccc(F)cc1N1CCCCS1(=O)=O)c1nc2n(c(=O)c1O)CCCC21CCC1` [Example 79, N-[[4-fluoro-2-(tetrahydro-1,1-dioxido-2H-1,2-thiazin-2-yl)phenyl]methyl]-7′,8′-dihydro-3′-hydroxy-4′-oxo-spiro[cyclobutane-1,9′(6′H)-[4H]pyrido[1,2-α]pyrimidine]-2′-carboxamide] has an IC50 of 1 to 10 nM. `O=C(NCc1ccccc1-n1cncn1)c1nc2n(c(=O)c1O)CCCC21CCC1` [Example 80, N-[[2-(1H-1,2,4-triazol-1-yl)phenyl]methyl]-7′,8′-dihydro-3′-hydroxy-4′-oxo-spiro[cyclobutane-1,9′(6′H)-[4H]pyrido[1,2-α]pyrimidine]-2′-carboxamide] gave an IC50 of 1 to 10 nM. `CS(=O)(=O)c1cc(F)ccc1CNC(=O)c1nc2n(c(=O)c1O)CCCC21CCC1` [Example 81, N-[[4-fluoro-2-(methylsulfonyl)phenyl]methyl]-7′,8′-dihydro-3′-hydroxy-4′-oxo-spiro[cyclobutane-1,9′(6′H)-[4H]pyrido[1,2-α]pyrimidine]-2′-carboxamide] showed an IC50 of 1 to 10 nM. Work on `CN(C)S(=O)(=O)c1cc(F)ccc1CNC(=O)c1nc2n(c(=O)c1O)CCCC21CCC1` [Example 82, N-[[2-[(dimethylamino)sulfonyl]-4-fluorophenyl]methyl]-7′,8′-dihydro-3′-hydroxy-4′-oxo-spiro[cyclobutane-1,9′(6′H)-[4H]pyrido[1,2-α]pyrimidine]-2′-carboxamide] yielded an IC50 of 1 to 10 nM. Compound `O=C(NCc1ccccc1N1CCCCS1(=O)=O)c1nc2n(c(=O)c1O)CCCC21CCC1` [Example 83, 7′,8′-dihydro-3′-hydroxy-4′-oxo-N-[[2-(tetrahydro-1,1-dioxido-2H-1,2-thiazin-2-yl)phenyl]methyl]-spiro[cyclobutane-1,9′(6′H)-[4H]pyrido[1,2-α]pyrimidine]-2′-carboxamide] has an IC50 of 10 to 100 nM. With `O=C(NCc1ccc(F)cc1)c1nc2n(c(=O)c1O)CCC21CCCC1` [Example 84, N-[(4-fluorophenyl)methyl]-6′,7′-dihydro-3′-hydroxy-4′-oxo-spiro[cyclopentane-1,8′(4′H)-pyrrole[1,2-α]pyrimidine]-2′-carboxamide] the IC50 was 1 to 10 nM. `CS(=O)(=O)c1cc(F)ccc1CNC(=O)c1nc2n(c(=O)c1O)CCC21CCCC1` [Example 85, N-[[4-fluoro-2-(methylsulfonyl)phenyl]methyl]-6′,7′-dihydro-3′-hydroxy-4′-oxo-spiro[cyclopentane-1,8′(4′H)-pyrrolo[1,2-α]pyrimidine]-2′-carboxamide] gave an IC50 of 1 to 10 nM. `CN(C)S(=O)(=O)c1cc(F)ccc1CNC(=O)c1nc2n(c(=O)c1O)CCC21CCCC1` [Example 86, N-[[2-[(dimethylamino)sulfonyl]-4-fluorophenyl]methyl]-6′,7′-dihydro-3′-hydroxy-4′-oxo-spiro[cyclopentane-1,8′(4′H)-pyrrolo[1,2-α]pyrimidine]-2′-carboxamide] showed an IC50 of 10 to 100 nM. With `O=C(NCc1ccc(F)cc1-n1cncn1)c1nc2n(c(=O)c1O)CCC21CCCC1` [Example 87, N-[[4-fluoro-2-(1H-1,2,4-triazol-1-yl)phenyl]methyl]-6′,7′-dihydro-3′-hydroxy-4′-oxo-spiro[cyclopentane-1,8′(4′H)-pyrrolo[1,2-α]pyrimidine]-2′-carboxamide] the IC50 was 1 to 10 nM. Compound `O=C(NCc1ccc(F)cc1)c1nc2n(c(=O)c1O)CCOC21CCNCC1` [Example 88, N-[(4-fluorophenyl)methyl]-6′,7′-dihydro-3′-hydroxy-4′-oxo-spiro[piperidine-4,9′(4′H)-pyrimido[2,1-c][1,4]oxazine]-2′-carboxamide] has an IC50 of 10 to 100 nM. `CS(=O)(=O)c1cc(F)ccc1CNC(=O)c1nc2n(c(=O)c1O)CCOC21CCCC1` [Example 89, N-[[4-fluoro-2-(methylsulfonyl)phenyl]methyl]-6′,7′-dihydro-3′-hydroxy-4′-oxo-spiro[cyclopentane-1,9′(4′H)-pyrimido[2,1-c][1,4]oxazine]-2′-carboxamide] gave an IC50 of 1 to 10 nM. Compound `CS(=O)(=O)c1cc(F)ccc1CNC(=O)c1nc2n(c(=O)c1O)CCOC21CCOC1` (stereo not drawn) [Example 90, N-[[4-fluoro-2-(methylsulfonyl)phenyl]methyl]-4,5,6′,7′-tetrahydro-3′-hydroxy-4′-oxo-spiro[furan-3(2H),9′(4′H)-pyrimido[2,1-c][1,4]oxazine]-2′-carboxamide] has an IC50 of 10 to 100 nM. Work on `CNC(=O)c1cc(F)ccc1CNC(=O)c1nc2n(c(=O)c1O)CCOC21CCC1` [Example 91, N-[[4-fluoro-2-[(methylamino)carbonyl]phenyl]methyl]-6′,7′-dihydro-3′-hydroxy-4′-oxo-spiro[cyclobutane-1,9′(4′H)-pyrimido[2,1-c][1,4]oxazine]-2′-carboxamide] yielded an IC50 of 1 to 10 nM.
